One data set has as its target T1, A3 AdoRs (Homo sapiens, UniProt P0DMS8).
T1 construct: expressed in transfected cells; host or cells: HEK-293 or CHO cells (HEK-A3 or CHO-A3), membranes
T1 sequence (P0DMS8 1-318): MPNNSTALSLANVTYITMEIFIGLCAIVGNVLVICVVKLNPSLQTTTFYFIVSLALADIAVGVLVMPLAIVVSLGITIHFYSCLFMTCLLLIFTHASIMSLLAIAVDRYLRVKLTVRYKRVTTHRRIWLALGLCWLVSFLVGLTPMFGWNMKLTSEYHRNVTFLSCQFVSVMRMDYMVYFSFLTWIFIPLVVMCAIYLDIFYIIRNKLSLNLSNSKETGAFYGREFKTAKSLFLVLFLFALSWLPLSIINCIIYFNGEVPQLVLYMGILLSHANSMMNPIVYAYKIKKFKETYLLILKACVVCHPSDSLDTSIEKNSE
Put plainly: Radioligand binding competition with 125I-AB-MECA on membranes of transfected cells. As to conditions: competition with 0.2 nM 125I-AB-MECA, membranes of HEK-A3 or CHO-A3, TEM buffer, 90 minutes. As to the method:
Stable transfection of HEK-293 or CHO cells. The cDNAs for human A1, A2A, A2B or A3 AdoRs were prepared by RT-PCR from total RNA of human cells or tissues and sequenced on both strands. The expression vector containing each of these cDNAs and a second vector containing a neomycin or puromycin-resistance gene were introduced to HEK-293 or CHO cells by Lipofectin-Plus (Life Technology). Colonies were selected by growing transfected cells in the presence of neomycin or puromycin. Stably transfected cells were maintained in Dulbecco's modified Eagle's medium (DMEM) or F-12 medium with 10% fetal bovine serum, 100 μg/ml penicillin, 100 μg/ml streptomycin and appropriate concentrations of neomycin or puromycin. These stably transfected cells were referred to as HEK-“AdoR” or CHO-“AdoR” depending on the receptors that they express. For example, cells that were transfected with A3 AdoRs were referred to as HEK-A3 or CHO-A3.
Membrane preparation. Monolayers of transfected cells were washed with phosphate buffered saline (PBS) and harvested in a buffer containing 10 mM HEPES (pH 7.4), 10 mM EDTA and protease inhibitors. The cells were homogenized in polytron for 1 minute at setting 4 and centrifuged at 29000 g for 15 minutes at 4° C. The cell pellets were washed with a buffer containing 10 mM HEPES (pH7.4), 1 mM EDTA and protease inhibitors, and were resuspended in the same buffer supplemented with 10% sucrose. Frozen aliquots were kept at −80° C.
Radioligand binding. The affinities of compounds for A1, A2A, A2B or A3 AdoRs were determined in competition studies using radioligands such as ^3H—CPX (A1 antagonist), or ^3H-CCPA (A1 agonist), ^3H-ZM214385 (A2A antagonist) or ^3H-CGS21680 (A2A agonist), ^3H-ZM214385 (A2B antagonist) or ^125I-AB-MECA (A3 agonist) and membranes of corresponding transfected cells. For example, to determine the affinity for A3 AdoRs, the competition assays were started by mixing 0.2 nM ^125I-AB-MECA with various concentrations of test compounds and 25 ug membrane proteins of HEK-A3 or CHO-A3 in TEM buffer (50 mM Tris, 1 mM EDTA and 10 mM MgCl2) supplemented with 1 U/ml adenosine deaminase. The assays were incubated for 90 minutes, stopped by filtration onto GF/B filter plates using Packard Harvester and washed four times with ice-cold TM buffer (10 mM Tris, 1 mM MgCl2, pH 7.4). The amounts of radioligands that bound to the GF/B filter plates were determined by scintillation counting. Nonspecific binding was determined in the presence of 10 μM R—PIA or 1 μM IB-MECA. Bmax and KD values were calculated using GraphPad software.

Here are results for five compounds from patent US6914053B2, “Adenosine A3 receptor agonists” (CV Therapeutics, Inc., priority 2002, dated 2005).

The Ki is the dissociation constant of the complex between target and ligand, obtained from inhibition or displacement. At A3 AdoRs, `CONc1nc(C#Cc2ccc(F)cc2)nc2c1ncn2[C@@H]1O[C@H](CO)[C@@H](O)[C@H]1O` [(4S,2R,3R,5R)-2-{2-[2-(4-fluorophenyl)ethynyl}-6-(methoxyamino)purin-9-yl}-5-(hydroxymethyl)oxolane-3,4-diol] came in with a Ki of 0.422 nM.
The same measure, in the same setting: in the case of `CCCCCc1ccc(C#Cc2nc(NOC)c3ncn([C@@H]4O[C@H](CO)[C@@H](O)[C@H]4O)c3n2)cc1` [(4S,2R,3R,5R)-5-hydroxymethyl)-2-{6-(methoxyamino-2-[2-(4-pentylphenylethynyl)]purin-9-yl}oxolane-3,4-diol] it was 0.388 nM.
Still for that read-out and setting: in the case of `CONc1nc(C#Cc2ccc(C)cc2)nc2c1ncn2[C@@H]1O[C@H](CO)[C@@H](O)[C@H]1O` [(4S,2R,3R,5R)-5-(hydroxymethyl)-2-[6-(methoxyamino)-2-[(2-(4-methylphenyl)ethynyl]-purin-9-yl]oxolane-3,4-diol] it was 0.331 nM; in that of `CCCCC#Cc1nc(NOC)c2ncn([C@@H]3O[C@H](CO)[C@@H](O)[C@H]3O)c2n1` [(4S,2R,3R,5R)-2-{2-[2-hex-1-ynyl-6-methoxyamino)purin-9-yl}-5-(hydroxymethyl)oxolane-3,4-diol], 0.681 nM.
One may read the melting point as the temperature, or range, at which the solid turns liquid. `CONc1nc(C#Cc2ccccc2)nc2c1ncn2[C@@H]1O[C@H](CO)[C@@H](O)[C@H]1O` [Example 6A, (4S,2R,3R,5R)-5-(hydroxymethyl)-2-[6-(methoxyamino)-2-(2-phenylethynyl)purin-9-yl]oxolane-3,4-diol] showed a melting point of 175 to 177 °C.
